Test results reported in article PMC12607858, “GNAT family Pat2 is required for long-term survival on glycerol and catalyzes lysine acetylation of glycerol kinase in hypersaline-adapted archaea” (mBio, 2025).

Key:
HvPat2 (HvPat2-SII) [1] = target: T1, HvPat2 (HvPat2-SII) (Haloferax volcanii, UniProt D4GSS9, N147A); assay: anti-acetyllysine immunoblot of in vitro acetylation of His-HvGlpK; assay type: biochemical; settings: acetyl donor 0.2 mM; 6 uM enzyme; co-substrate HvGlpK 2 uM; 50 mM HEPES pH 7.5, 2 M NaCl, 1 mM DTT, 37 C, 3 h
T1 construct: gene pat2; full-length single GNAT domain, C-terminal StrepII tag kept; expressed in and purified from H. volcanii H26 delta-pat2; 196 residues with tag, 21,636 Da, monomer
T1 sequence (D4GSS9 entry or part of it N147A): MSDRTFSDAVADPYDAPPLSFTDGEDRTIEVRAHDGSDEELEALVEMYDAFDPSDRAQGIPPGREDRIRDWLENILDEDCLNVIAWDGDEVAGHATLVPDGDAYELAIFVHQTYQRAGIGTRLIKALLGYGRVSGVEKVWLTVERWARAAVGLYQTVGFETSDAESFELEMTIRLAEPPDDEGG

HvPat2 (HvPat2-SII) [2] = target: T2, HvPat2 (HvPat2-SII) (Haloferax volcanii, UniProt D4GSS9); assay: as above; assay type: biochemical; settings: acetyl donor 0.2 mM; 6 uM enzyme; co-substrate HvGlpK 2 uM; 50 mM HEPES pH 7.5, 2 M NaCl, 1 mM DTT, 37 C, 3 h
T2 construct: gene pat2; full-length single GNAT domain, C-terminal StrepII tag kept; expressed in and purified from H. volcanii H26 delta-pat2; 196 residues with tag, 21,636 Da, monomer
T2 sequence (D4GSS9 entry or part of it): as the sequence (D4GSS9 entry or part of it N147A) above, with A147N counted along it

SMILES: CC(=O)SCCNC(=O)CCNC(=O)[C@H](O)C(C)(C)COP(=O)(O)OP(=O)(O)OC[C@H]1O[C@@H](n2cnc3c(N)ncnc32)[C@H](O)[C@@H]1OP(=O)(O)O [acetyl-CoA]
- anti-acetyllysine immunoblot of in vitro acetylation of His-HvGlpK (HvPat2 (HvPat2-SII) [1]): The V110A variant showed minimal activity, while N147A exhibited reduced activity
- anti-acetyllysine immunoblot of in vitro acetylation of His-HvGlpK (HvPat2 (HvPat2-SII) [2]): when His-HvGlpKEc was incubated with both HvPat2 and acetyl-CoA, a strong signal for lysine acetylation
